Assay results published in PubChem BioAssay (NCI).
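Grown in 96-well plates, cells were treated for 48 hours with each compound at five concentrations. Insufficient inhibition: endpoint recorded as highest concentration tested. The concentration for 50% growth inhibition is given as GI50. The concentration for full growth arrest is given as TGI.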

What was measured:
Test in all cases: NCI anticancer screen, dose series, 48 h
SN12C renal = system: SN12C renal
TK-10 renal = system: TK-10 renal
MDA-MB-468 breast = system: MDA-MB-468 breast
K-562 leukemia = system: K-562 leukemia
CCRF-CEM leukemia = system: CCRF-CEM leukemia
MALME-3M melanoma = system: MALME-3M melanoma
NCI/ADR-RES ovarian = system: NCI/ADR-RES ovarian
M14 melanoma = system: M14 melanoma
RPMI-8226 leukemia = system: RPMI-8226 leukemia
PC-3 prostate = system: PC-3 prostate
MCF7 breast = system: MCF7 breast
SK-MEL-2 melanoma = system: SK-MEL-2 melanoma
UACC-62 melanoma = system: UACC-62 melanoma
KM12 colon = system: KM12 colon
HCC-2998 colon = system: HCC-2998 colon
A549 NSCLC = system: A549 NSCLC
RXF 393 renal = system: RXF 393 renal
T-47D breast = system: T-47D breast
CAKI-1 renal = system: CAKI-1 renal
EKVX NSCLC = system: EKVX NSCLC
UO-31 renal = system: UO-31 renal
SNB-75 CNS = system: SNB-75 CNS
SK-OV-3 ovarian = system: SK-OV-3 ovarian
OVCAR-3 ovarian = system: OVCAR-3 ovarian
HCT-15 colon = system: HCT-15 colon
SNB-19 CNS = system: SNB-19 CNS
HOP-62 NSCLC = system: HOP-62 NSCLC
OVCAR-4 ovarian = system: OVCAR-4 ovarian
SW-620 colon = system: SW-620 colon
NCI-H23 lung = system: NCI-H23 lung
U251 CNS = system: U251 CNS
NCI-H460 lung = system: NCI-H460 lung
HL-60(TB) leukemia = system: HL-60(TB) leukemia
BT-549 breast = system: BT-549 breast
OVCAR-5 ovarian = system: OVCAR-5 ovarian
MDA-MB-231 breast = system: MDA-MB-231 breast
MOLT-4 leukemia = system: MOLT-4 leukemia
HCT-116 colon = system: HCT-116 colon
MDA-MB-435 = system: MDA-MB-435
SK-MEL-28 melanoma = system: SK-MEL-28 melanoma
LOX IMVI melanoma = system: LOX IMVI melanoma
SF-295 CNS = system: SF-295 CNS
OVCAR-8 ovarian = system: OVCAR-8 ovarian
DU-145 prostate = system: DU-145 prostate
SF-268 CNS = system: SF-268 CNS
ACHN renal = system: ACHN renal
HOP-92 NSCLC = system: HOP-92 NSCLC
SK-MEL-5 melanoma = system: SK-MEL-5 melanoma
IGROV1 ovarian = system: IGROV1 ovarian
SF-539 CNS = system: SF-539 CNS
SR leukemia = system: SR leukemia
NCI-H522 lung = system: NCI-H522 lung
NCI-H226 lung = system: NCI-H226 lung
A498 renal = system: A498 renal
UACC-257 melanoma = system: UACC-257 melanoma
786-0 renal = system: 786-0 renal
COLO 205 colon = system: COLO 205 colon
HS 578T breast = system: HS 578T breast

O=C(COc1ccc(NC(=O)Nc2ccccc2)cc1)N=Nc1c(O)[nH]c2ccc([N+](=O)[O-])cc12
GI50 (SN12C renal): 1650 nM | TGI (SN12C renal): 3.3 µM | GI50 (TK-10 renal): 17.3 µM | TGI (TK-10 renal): 38.4 µM | GI50 (MDA-MB-468 breast): 1850 nM | TGI (MDA-MB-468 breast): 3.31 µM | GI50 (K-562 leukemia): 3.02 µM | TGI (K-562 leukemia): 7.65 µM | GI50 (CCRF-CEM leukemia): 2450 nM | TGI (CCRF-CEM leukemia): 6.17 µM | GI50 (MALME-3M melanoma): 1630 nM | TGI (MALME-3M melanoma): 3.07 µM | GI50 (NCI/ADR-RES ovarian): > 100 µM | TGI (NCI/ADR-RES ovarian): > 100 µM | GI50 (M14 melanoma): 2860 nM | TGI (M14 melanoma): 11.3 µM | GI50 (RPMI-8226 leukemia): 5.39 µM | TGI (RPMI-8226 leukemia): > 100 µM | GI50 (PC-3 prostate): 2050 nM | TGI (PC-3 prostate): 4.76 µM | GI50 (MCF7 breast): 1940 nM | TGI (MCF7 breast): 4.02 µM | GI50 (SK-MEL-2 melanoma): 1760 nM | TGI (SK-MEL-2 melanoma): 3.46 µM | GI50 (UACC-62 melanoma): 1830 nM | TGI (UACC-62 melanoma): 3.92 µM | GI50 (KM12 colon): 1950 nM | TGI (KM12 colon): 3.96 µM | GI50 (HCC-2998 colon): 2240 nM | TGI (HCC-2998 colon): 5.15 µM | GI50 (A549 NSCLC): > 100 µM | TGI (A549 NSCLC): > 100 µM | GI50 (RXF 393 renal): 2310 nM | TGI (RXF 393 renal): 6.01 µM | GI50 (T-47D breast): 1710 nM | TGI (T-47D breast): 3.6 µM | GI50 (CAKI-1 renal): 47.7 µM | TGI (CAKI-1 renal): > 100 µM | GI50 (EKVX NSCLC): 5.02 µM | TGI (EKVX NSCLC): 45.7 µM | GI50 (UO-31 renal): > 100 µM | TGI (UO-31 renal): > 100 µM | GI50 (SNB-75 CNS): 1460 nM | TGI (SNB-75 CNS): 3.39 µM | GI50 (SK-OV-3 ovarian): 5.45 µM | TGI (SK-OV-3 ovarian): 21 µM | GI50 (OVCAR-3 ovarian): 1660 nM | TGI (OVCAR-3 ovarian): 3.18 µM | GI50 (HCT-15 colon): 99.8 µM | TGI (HCT-15 colon): > 100 µM | GI50 (SNB-19 CNS): 1980 nM | TGI (SNB-19 CNS): 4.55 µM | GI50 (HOP-62 NSCLC): 2420 nM | TGI (HOP-62 NSCLC): 7.08 µM | GI50 (OVCAR-4 ovarian): 1840 nM | TGI (OVCAR-4 ovarian): 3.96 µM | GI50 (SW-620 colon): 1690 nM | TGI (SW-620 colon): 3.83 µM | GI50 (NCI-H23 lung): 2090 nM | TGI (NCI-H23 lung): 4.27 µM | GI50 (U251 CNS): 1710 nM | TGI (U251 CNS): 3.12 µM | GI50 (NCI-H460 lung): 1890 nM | TGI (NCI-H460 lung): 4.58 µM | GI50 (HL-60(TB) leukemia): 8.08 µM | TGI (HL-60(TB) leukemia): > 100 µM | GI50 (BT-549 breast): 1890 nM | TGI (BT-549 breast): 5.37 µM | GI50 (OVCAR-5 ovarian): 4.11 µM | TGI (OVCAR-5 ovarian): > 100 µM | GI50 (MDA-MB-231 breast): 1820 nM | TGI (MDA-MB-231 breast): 3.41 µM | GI50 (MOLT-4 leukemia): 2370 nM | TGI (MOLT-4 leukemia): 5.08 µM | GI50 (HCT-116 colon): 1720 nM | TGI (HCT-116 colon): 3.13 µM | GI50 (MDA-MB-435): 1710 nM | TGI (MDA-MB-435): 3.26 µM | GI50 (SK-MEL-28 melanoma): 1790 nM | TGI (SK-MEL-28 melanoma): 3.65 µM | GI50 (LOX IMVI melanoma): 1700 nM | TGI (LOX IMVI melanoma): 3.15 µM | GI50 (SF-295 CNS): 6.27 µM | TGI (SF-295 CNS): 32.8 µM | GI50 (OVCAR-8 ovarian): 1890 nM | TGI (OVCAR-8 ovarian): 3.75 µM | GI50 (DU-145 prostate): 3.88 µM | TGI (DU-145 prostate): > 100 µM | GI50 (SF-268 CNS): 1910 nM | TGI (SF-268 CNS): 4.08 µM | GI50 (ACHN renal): 29.3 µM | TGI (ACHN renal): > 100 µM | GI50 (HOP-92 NSCLC): 1760 nM | TGI (HOP-92 NSCLC): 3.39 µM | GI50 (SK-MEL-5 melanoma): 2150 nM | TGI (SK-MEL-5 melanoma): 5.09 µM | GI50 (IGROV1 ovarian): 3.43 µM | TGI (IGROV1 ovarian): 15.5 µM | GI50 (SF-539 CNS): 1670 nM | TGI (SF-539 CNS): 3.14 µM | GI50 (SR leukemia): 2650 nM | TGI (SR leukemia): 6.32 µM | GI50 (NCI-H522 lung): 1610 nM | TGI (NCI-H522 lung): 3.15 µM | GI50 (NCI-H226 lung): 2310 nM | TGI (NCI-H226 lung): 5.94 µM | GI50 (A498 renal): 11.4 µM | TGI (A498 renal): 32.5 µM | GI50 (UACC-257 melanoma): 2010 nM | TGI (UACC-257 melanoma): 4.91 µM | GI50 (786-0 renal): 5.69 µM | TGI (786-0 renal): 23.8 µM | GI50 (COLO 205 colon): 1940 nM | TGI (COLO 205 colon): 3.55 µM | GI50 (HS 578T breast): 2090 nM | TGI (HS 578T breast): 5.8 µM
